We go through 3 compounds from patent US4331803A, “Novel erythromycin compounds” (Taisho Pharmaceutical Co., Ltd., priority 1980, dated 1982).

Series [1] has as its system Staphylococcus epidermidis TPR-14. Briefly: Antibacterial activity, agar plate dilution method (MIC). In kind it is cell-based. As to the method:
(§1) The compound of the formula(I) was tested for the antibacterial activity by the agar plate dilution method, using erythromycin A for the control.
***Strain resistant to sulfonamides, penicillins and chloramphenicol

In series [2] the test system is Staphylococcus aureus Smith No. 4. Briefly: In vivo activity, survival of infected mice after oral administration. The conditions noted are these: 1 h after inoculation, 14 mice per group, 7 days. Also on record: species or system male ddY mice. As to the method:
Male ddY mice (body weight, 18-22 g; 14 mice per group) were inoculated with Staphylococcus aureus Smith No. 4. The compound of the formula(I) was administered orally one hour after the inoculation, and the number of mice surviving for seven days after the administration was noted.

Series [3] is described as follows: Acid stability (pH 2), remaining antibacterial activity by disc method. It is filed as physicochemical, Staphylococcus aureus FDA 209P. As to the method: (§2) The compound of the formula(I) was treated in the Clark-Lubs's buffer solution at pH 2 for the prescribed period of time.
(§3) Thereafter, the remaining antibacterial activity was determined by a disc method, using Staphylococcus aureus FDA 209P. Erthromycin A was also tested for the control.

For series [4], the system named is Staphylococcus aureus FDA 209P. The series is described as above. The following applies: pH 2, Clark-Lubs's buffer, 0 min. It is filed as physicochemical. The protocol:
as §2, §3

The test system of series [5] is Staphylococcus aureus TPR-5. Briefly: Antibacterial activity, agar plate dilution method (MIC). In kind it is cell-based. The protocol:
as §1
*Strain resistant to sulfonamides and penicillins

Series [6] concerns Bacillus cereus ATCC 9634. The series is described as above. In kind it is cell-based. As to the method: as §1
The test system of series [7] is Micrococcus luteus ATCC 9341. The series is described as above. In kind it is cell-based. As to the method:
as §1

Series [8] deals with Bacillus subtilis ATCC 6633. The series is described as above. It is filed as cell-based. As to the method: as §1
In series [9] the test system is Staphylococcus aureus Terashima. Described as above. The following applies: read-out: MIC value. In kind it is cell-based. As to the method: as §1
The test system of series [10] is Streptococcus faecalis ATCC 8043. The description is as above. The following applies: Enterococcus faecalis. In kind it is cell-based. As to the method: as §1
Series [11] has as its system Staphylococcus aureus Smith. Described as above. It is filed as cell-based. The conditions noted are these: read-out: MIC value. As to the method:
as §1

The subject of series [12] is Staphylococcus epidermidis IID866. The description is as above. It is filed as cell-based. The protocol: as §1
In series [13] the test system is Staphylococcus aureus FDA 209P. The series is described as above. The following applies: FDA209P, read-out: MIC value. In kind it is cell-based. As to the method: as §1
For series [14], the system named is Staphylococcus aureus TPR-7. Described as above. In kind it is cell-based. The protocol:
as §1
**Strain resistant to sulfonamides and tetracyclines

The conditions of series [15]: cited from earlier work.
Where [16] appears, read: TPR14, Staphylococcus epidermidis TPR-14, resistant to sulfonamides, penicillins and chloramphenicol, read-out: MIC value.
Where [17] appears, read: TPR5, Staphylococcus aureus TPR-5, resistant to sulfonamides and penicillins, read-out: MIC value.
[18] abbreviates: ATCC9634, Bacillus cereus ATCC 9634, read-out: MIC value.
[19] abbreviates: ATCC9341, Micrococcus luteus ATCC 9341, read-out: MIC value.
The mark [20] stands for this setting: ATCC6633, Bacillus subtilis ATCC 6633, read-out: MIC value.
[21] abbreviates: Staphylococcus aureus Terashima.
The mark [22] stands for this setting: ATCC8043, Streptococcus faecalis ATCC 8043, read-out: MIC value.
The mark [23] stands for this setting: Staphylococcus epidermidis IID866, read-out: MIC value.
Where [24] appears, read: TPR7, Staphylococcus aureus TPR-7, resistant to sulfonamides and tetracyclines, read-out: MIC value.

Converted amounts (≈) assume the structure as drawn. Read-outs that look alike come from different tables or passages of the source. A value given as a limit tells only on which side of the number the result lay.

In general, MIC refers to the lowest concentration that inhibits growth of the organism. Usually amount remaining stands for what is left of the initial amount, in per cent. Consider `CC[C@H]1OC(=O)[C@H](C)[C@@H](O[C@H]2C[C@@](C)(OC)[C@@H](O)[C@H](C)O2)[C@H](C)[C@@H](O[C@@H]2O[C@H](C)C[C@H](N(C)C)[C@H]2O)[C@](C)(OC)C[C@@H](C)C(=O)[C@H](C)[C@@H](O)[C@]1(C)O` [TE-031, 6-O-methylerythromycin A], for which the minimal inhibitory concentration (MIC) in [1] (setting [16]) was 0.2 µg/mL (≈ 0.267 µM); in series [5] (setting [17]), 0.2 µg/mL (≈ 0.267 µM); in series [6] (setting [18]), 0.2 µg/mL (≈ 0.267 µM); in series [7] (setting [19]) it was at most 0.05 µg/mL; in [8] (setting [20]) it was 0.05 µg/mL (≈ 0.0668 µM); in [9] (setting [21]) it was 0.2 µg/mL (≈ 0.267 µM). Moreover, the MIC in series [10] (setting [22]) stood at 0.05 µg/mL (≈ 0.0668 µM); in series [11] (Staphylococcus aureus Smith) it was 0.2 µg/mL (≈ 0.267 µM); in series [12] (setting [23]) it was 0.2 µg/mL (≈ 0.267 µM); in [13] (Staphylococcus aureus FDA 209P), 0.05 µg/mL (≈ 0.0668 µM); in series [14] (setting [24]), 0.2 µg/mL (≈ 0.267 µM). Also, the “The number of surviving mice” value in series [2] (0.40 mg/kg oral) came to 0 mice; in series [2] (1.56 mg/kg oral), 1 mice; in series [2] (6.25 mg/kg oral), 3 mice; in series [2] (25 mg/kg oral), 13 mice; in series [2] (100 mg/kg oral), 14 mice; in series [2] (400 mg/kg oral), 14 mice. Also, the amount remaining at 0.25 h in series [3] (clark-lubs buffer, pH 2) was 100%. Moreover, the share remaining at 0.5 h in [3] (clark-lubs buffer, pH 2) turned out to be 95%. This compound also came in with an amount remaining at 1 h in series [3] (clark-lubs buffer, pH 2) of 80%. In series [3] (clark-lubs buffer, pH 2), this compound returned a fraction remaining at 2 h of 65%. Further, the Remaining activity in series [4] amounted to 100%.
On to `CC[C@H]1OC(=O)[C@H](C)[C@@H](O[C@H]2C[C@@](C)(OC)[C@@H](O)[C@H](C)O2)[C@H](C)[C@@H](O[C@@H]2O[C@H](C)C[C@H](N(C)C)[C@H]2O)[C@](C)(O)C[C@@H](C)C(=O)[C@H](C)[C@@H](O)[C@]1(C)O` [Erythromycin A, erythromycin A, reference compound], for which the MIC was 0.4 µg/mL (≈ 0.545 µM) in [1] (Staphylococcus epidermidis, TPR14, read-out: MIC value); 0.4 µg/mL (≈ 0.545 µM) in [5] (Staphylococcus aureus, TPR5, read-out: MIC value); 0.4 µg/mL (≈ 0.545 µM) in [6] (Bacillus cereus, ATCC9634, read-out: MIC value); at most 0.05 µg/mL in series [7] (Micrococcus luteus, ATCC9341, read-out: MIC value); 0.1 µg/mL (≈ 0.136 µM) in [8] (Bacillus subtilis, ATCC6633, read-out: MIC value); 0.4 µg/mL (≈ 0.545 µM) in series [9] (Staphylococcus aureus). For the same compound, the minimum inhibitory concentration (MIC) is 0.05 µg/mL (≈ 0.0681 µM) in [10] (ATCC8043, read-out: MIC value); 0.4 µg/mL (≈ 0.545 µM) in [11] (Staphylococcus aureus); 0.4 µg/mL (≈ 0.545 µM) in series [12] (Staphylococcus epidermidis, IID866, read-out: MIC value); 0.2 µg/mL (≈ 0.273 µM) in series [13] (Staphylococcus aureus); 0.4 µg/mL (≈ 0.545 µM) in series [14] (Staphylococcus aureus, TPR7, read-out: MIC value). Further, the “The number of surviving mice” value stood at 0 mice in [2] (0.40 mg/kg oral); 0 mice in series [2] (1.56 mg/kg oral); 0 mice in [2] (6.25 mg/kg oral); 1 mice in series [2] (25 mg/kg oral); 11 mice in series [2] (100 mg/kg oral); 14 mice in [2] (400 mg/kg oral). The amount remaining at 0.25 h in [3] (pH 2, Clark-Lubs's buffer, 15 min, read-out: Remaining activity) came out at 1.5%. The share remaining at 0.5 h in [3] (pH 2, Clark-Lubs's buffer, 30 min, read-out: Remaining activity) stood at 0.5%. Further, the share remaining at 1 h in [3] (pH 2, Clark-Lubs's buffer, 60 min, read-out: Remaining activity) is 0%. Also, the fraction remaining at 2 h in [3] (pH 2, Clark-Lubs's buffer, 120 min, read-out: Remaining activity) was 0%. In addition, the Remaining activity in [4] was 100%. Moreover, in [15], the “antibacterial activity after oral administration (acid in stomach)” value is reported as “loses rapidly the antibacterial activity”. In addition, the blood concentration entry in [15] (oral) is given as “remains at a low level”.
For `CC[C@H]1OC(=O)[C@H](C)[C@@H](O[C@H]2C[C@@](C)(OC)[C@@H](O)[C@H](C)O2)[C@H](C)[C@@H](O[C@@H]2O[C@H](C)C[C@H](N(C)C)[C@H]2O)[C@](C)(OC)C[C@@H](C)C(=O)[C@H](C)[C@@H](OC)[C@]1(C)O` [TE-032, 6,11-di-O-methylerythromycin A], the MIC in series [1] (setting [16]) was 0.4 µg/mL (≈ 0.525 µM); in [5] (setting [17]), 0.4 µg/mL (≈ 0.525 µM); in series [6] (setting [18]), 0.4 µg/mL (≈ 0.525 µM); in series [7] (setting [19]), at most 0.05 µg/mL; in [8] (setting [20]), 0.05 µg/mL (≈ 0.0656 µM); in series [9] (setting [21]), 0.4 µg/mL (≈ 0.525 µM). For the same compound, the minimum inhibitory concentration (MIC) in [10] (setting [22]) stood at 0.05 µg/mL (≈ 0.0656 µM); in series [11] (Staphylococcus aureus Smith), 0.1 µg/mL (≈ 0.131 µM); in [12] (setting [23]), 0.4 µg/mL (≈ 0.525 µM); in series [13] (Staphylococcus aureus FDA 209P), 0.1 µg/mL (≈ 0.131 µM); in series [14] (setting [24]) it was 0.4 µg/mL (≈ 0.525 µM). In addition, the “The number of surviving mice” value in series [2] (0.40 mg/kg oral) is 0 mice; in [2] (1.56 mg/kg oral), 0 mice; in series [2] (6.25 mg/kg oral) it was 4 mice; in [2] (25 mg/kg oral), 7 mice; in [2] (100 mg/kg oral), 14 mice; in series [2] (400 mg/kg oral) it was 14 mice. For the same compound, the fraction remaining at 0.25 h in [3] (clark-lubs buffer, pH 2) was determined as 100%. Moreover, the share remaining at 0.5 h in series [3] (clark-lubs buffer, pH 2) amounted to 95%. This compound gave a fraction remaining at 1 h in series [3] (clark-lubs buffer, pH 2) of 85%. Also, the amount remaining at 2 h in series [3] (clark-lubs buffer, pH 2) was found to be 65%. The compound also registered a Remaining activity in [4] of 100%.
